Assay [1] concerns IL-1β production in human peripheral blood mononuclear cells (PBMCs). Kind of assay: PBMC Cellular Assay - IC50 Determinations (LPS-stimulated IL-1β production, ELISA). The class given is cell-based. The conditions noted are these: human PBMCs stimulated overnight with 10 ng/mL LPS, mature IL-1β by ELISA. A digest of the protocol:
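Ficoll-isolated human PBMCs (10^6/well, RPMI with 2% human AB serum) were stimulated overnight with LPS 10 ng/mL (E. coli 0111:B4) with or without compound. Mature IL-1β in medium measured by ELISA; viability checked by MTT over a further 4 h.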
(In general: In an ELISA, binding on a coated surface is turned into a signal by an enzyme label.)

In a further assay the target is T1, Ich-2 enzyme (Homo sapiens, UniProt P49662).
T1 sequence (P49662 81-270 limits assumed): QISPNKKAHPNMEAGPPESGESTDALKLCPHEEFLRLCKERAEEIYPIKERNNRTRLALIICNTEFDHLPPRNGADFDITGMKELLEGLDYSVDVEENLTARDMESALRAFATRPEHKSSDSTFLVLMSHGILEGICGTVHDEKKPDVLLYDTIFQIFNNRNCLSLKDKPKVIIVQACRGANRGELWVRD
T1 sequence (P49662 290-377 limits assumed): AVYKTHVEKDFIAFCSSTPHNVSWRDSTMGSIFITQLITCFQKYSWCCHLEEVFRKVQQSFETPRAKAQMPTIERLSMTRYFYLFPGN
Nature of the assay: Ich-2 Colorimetric Dose-Response (IC50) Assay. The class given is biochemical. The conditions noted are these: enzyme 64 nM, 60 µM Ac-Leu-Glu-Val-Asp-pNA; read-out: ICH2 IC50 (Caspase 4). A digest of the protocol: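 Enzyme at 64 nM in HGE buffer (Hepes pH 7.5, EDTA, glycerol, BSA), activated with 5 mM DTT, preincubated 60 min at ambient temperature with two-fold serially diluted inhibitor, in triplicate. Ac-Leu-Glu-Val-Asp-pNA added at 60 µM; A405 followed for 1 h at 25°C, rate used as activity.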

Assay [2] addresses T2, ICE (Homo sapiens, UniProt P29466).
T2 sequence (P29466 120-297 limits assumed): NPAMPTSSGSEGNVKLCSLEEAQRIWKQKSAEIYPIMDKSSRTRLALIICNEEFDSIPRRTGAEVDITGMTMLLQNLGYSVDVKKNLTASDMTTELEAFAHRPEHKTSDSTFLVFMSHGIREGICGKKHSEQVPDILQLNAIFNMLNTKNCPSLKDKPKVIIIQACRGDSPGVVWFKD
T2 sequence (P29466 317-404 limits assumed): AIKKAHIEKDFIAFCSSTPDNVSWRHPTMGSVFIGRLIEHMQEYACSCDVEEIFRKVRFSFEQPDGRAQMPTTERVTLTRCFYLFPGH
Nature of the assay: ICE Colorimetric Dose-Response (IC50) Assay. The class given is biochemical. The conditions noted are these: 60 minutes preincubation, 50 µM Ac-Tyr-Val-Ala-Asp-pNA, 25°C. In outline: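 Human ICE (~24 nM in HGE buffer, pH 7.5, activated with 5 mM DTT) preincubated 60 min at ambient temperature with two-fold serial inhibitor dilutions, in triplicate. Ac-Tyr-Val-Ala-Asp-pNA added at 50 µM; A405 followed for 1 h at 25°C starting 5 min after substrate, activity taken as mean rate.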

Assay [3] has as its target T2, ICE. Nature of the assay: ICE inhibition, Ki determination (fluorogenic substrate Ac-Tyr-Val-Ala-Asp-AMC). In kind it is biochemical. The conditions noted are these: 15 µM Ac-Tyr-Val-Ala-Asp-AMC, 0.5 nM enzyme, 30°C, reversible competitive model.

The values that follow come from EP1082127B1 (WARNER-LAMBERT COMPANY LLC, priority 1998, dated 1999).

What is called IC50 is the concentration at which inhibition is half-maximal. Usually Ki stands for a dissociation constant, usually derived from enzyme kinetics or from competition with a known ligand.

Molecules are shown by their SMILES.

Regarding `CC(C)C(CC(=O)NCCc1ccccc1)C(=O)NC(CC(=O)O)C(=O)CNS(=O)(=O)CC12CCC(CC1)C2(C)C` (centres unmarked) [Example 6, 5-(7,7-Dimethyl-bicyclo[2.2.1]hept-1-ylmethanesulfonylamino)-3-[3-methyl-2-(phenethylcarbamoyl-methyl)-butyrylamino]-4-oxo-pentanoic acid], the IC50 worked out at 3250 nM in assay [1], 9590 nM on Ich-2 enzyme and 1060 nM against ICE [2]. The same molecule came in with a Ki at ICE [3] of 142 nM.
In the same order, the values of `Cc1cccc2c(CCNC(=O)CC(C(=O)NC(CC(=O)O)C(=O)CNS(=O)(=O)CC34CCC(CC3=O)C4(C)C)C(C)C)c[nH]c12` (centres unmarked) [Example 19, 5-(7,7-Dimethyl-2-oxo-bicyclo[2.2.1]hept-1-ylmethanesulfonylamino)-3-(3-methyl-2-{(2-(7-methyl-1H-indol-3-yl)-ethylcarbamoyl]-methyl}-butyrylamino)-4-oxo-pentanoic acid] are 400 nM, 2380 nM, 8.5 nM and 0.9 nM.
The like results for `CC(C)C(CC(=O)N(C)CCn1cnc2ccccc21)C(=O)NC(C=O)CC(=O)O` (centres unmarked) [Example 57, 3-(2-{[(2-Benzoimidazol-1-yl-ethyl)-methyl-carbamoyl]-methyl}-3-methyl-butyrylamino)-4-oxo-butyric acid] were, in that order, 3750 nM, 38000 nM, 227 nM and 22.9 nM.
The like results for `CC(C)C(CC(=O)NCCOc1ccccc1)C(=O)NC(CC(=O)O)C(=O)CNS(=O)(=O)CC12CCC(CC1=O)C2(C)C` (centres unmarked) [Example 9, 5-(7,7-Dimethyl-2-oxo-bicyclo[2.2.1]hept-1-ylmethanesulfonylamino)-3-{3-methyl-2-[(2-phenoxy-ethylcarbamoyl)-methyl]-butyrylamino}-4-oxo-pentanoic acid] were, in that order, 2100 nM, 4220 nM, 53 nM and 23.4 nM.
Regarding `CC(C)C(CC(=O)NCCCc1cccc2ccccc12)C(=O)NC(CC(=O)O)C(=O)CNS(=O)(=O)CC12CCC(CC1=O)C2(C)C` (centres unmarked) [Example 28, 5-(7,7-Dimethyl-2-oxo-bicyclo[2.2.1]hept-1-ylmethanesulfonylamino)-3-{3-methyl-2-[(3-naphthalen-1-yl-propylcarbamoyl)-methyl]-butyrylamino}-4-oxo-pentanoic acid], the IC50 in assay [1] is 550 nM; on Ich-2 enzyme, 5580 nM; against ICE [2] it was 254 nM. The molecule also gave a Ki on ICE [3] of 6.1 nM.
In the same order, the values of `CC(C)[C@H](CC(=O)NCCn1cnc2cc(Cl)c(Cl)cc21)C(=O)NC(C=O)CC(=O)O` (some centres unmarked) [Example 56, 3-(2-{[2-(5,6-Dichloro-benzoimidazol-1-yl)-ethylcarbamoyl]-methyl}-3-methyl-butyrylamino)-4-oxo-butyric acid] are 3250 nM, 4020 nM, 28.6 nM and 4.4 nM.
With `CCOC1OC(=O)CC1NC(=O)C(CC(=O)NCCn1c(C)nc2ccccc21)C(C)C` (centres unmarked) [Example 46, N^1-(2-ethoxy-5-oxotetrahydro-furan-3-yl)-2-isopropyl-N^4-[2-(2-methyl-benzoimidazol-1-yl)-ethyl]-succinamide], the IC50 is 6500 nM in assay [1], 367000 nM on Ich-2 enzyme and 438 nM on ICE [2]. In addition, the Ki on ICE [3] amounted to 28.4 nM.
In the same order, the values of `CC(C)C(CC(N)=O)C(=O)NC(CC(=O)O)C(=O)CNS(=O)(=O)CC12CCC(CC1=O)C2(C)C` (centres unmarked) [Example 2, 3-(2-Carbamoylmethyl-3-methyl-butyrylamino)-5-(7,7-dimethyl-2-oxo-bicyclo[2.2.1]hept-1-ylmethanesulfonylamino)-4-oxo-pentanoic acid] are 6250 nM, 3310 nM, 790 nM and 106 nM.
The like results for `CC(C)C(CC(=O)NCCc1cn(C)c2ccccc12)C(=O)NC(CC(=O)O)C(=O)CNS(=O)(=O)CC12CCC(CC1=O)C2(C)C` (centres unmarked) [Example 31, 5-(7,7-Dimethyl-2-oxo-bicyclo[2.2.1]hept-1-ylmethanesulfonylamino)-3-(3-methyl-2-{[2-(1-methyl-1H-indol-3-yl)-ethylcarbamoyl]-methyl}-butyrylamino)-4-oxo-pentanoic acid] were, in that order, 240 nM, 1240 nM, 5.9 nM and 0.4 nM.
In the same order, the values of `CC(CC(=O)NCCc1ccccc1)C(=O)NC(CC(=O)O)C(=O)CNS(=O)(=O)CCc1ccccc1` (centres unmarked) [Example 1, 3-(2-Methyl-3-phenethylcarbamoyl-propionylamino)-4-oxo-5-(2-phenylethanesulfonylamino)-pentanoic acid] are 82500 nM, 89000 nM, 14500 nM and 1600 nM.
Consider `CCOC1OC(=O)CC1NC(=O)[C@@H](CC(=O)NCCn1cnc2cc(Cl)c(Cl)cc21)C(C)C` (some centres unmarked) [Example 38, N^4-[2-(5,6-Dichloro-benzoimidazol-1-yl)-ethyl]-N^1-(2-ethoxy-5-oxo-tetrahydro-furan-3-yl)-2-isopropyl-succinamide], for which the IC50 in assay [1] was 3400 nM; on Ich-2 enzyme, 18700 nM; on ICE [2] it was 377 nM. On ICE [3], the Ki amounted to 16.4 nM.
In the same order, the values of `CCOC1OC(=O)CC1NC(=O)C(CC(=O)NCCc1c[nH]c2c(C)cccc12)C(C)C` (centres unmarked) [Example 45, N^1-(2-Ethoxy-5-oxo-tetrahydro-furan-3-yl)-N^4-[2-(7-methyl-1H-indol-3-yl)-ethyl]-2-isopropyl-succinamide] are 2600 nM, 174000 nM, 750 nM and 37 nM.
Turning to `Cc1cc2ncn(CCN(C)C(=O)CC(C(=O)NC(C=O)CC(=O)O)C(C)C)c2cc1C` (centres unmarked) [Example 60, 3-[2-({[2-(5,6-Dimethyl-benzoimidazol-1-yl)-ethyl]-methylcarbamoyl}-methyl)-3-methyl-butyrylamino]4-oxo-butyric acid], the results for the IC50 (in assay [1]; on Ich-2 enzyme; against ICE [2]) were 5000 nM, 12700 nM and 468 nM, respectively. The molecule further returned a Ki on ICE [3] of 9.2 nM.
As for `CCOC1OC(=O)CC1NC(=O)C(CC(=O)NCCc1c[nH]c2ccccc12)C(C)C` (centres unmarked) [Example 36, N^1-(2-Ethoxy-5-oxo-tetrahydro-furan-3-yl)-N^4-[2-(1H-indol-3-yl)-ethyl]-2-isopropyl-succinamide], the IC50 came out at 1300 nM in assay [1], 101000 nM on Ich-2 enzyme and 599 nM at ICE [2]. Also, at ICE [3], the Ki came to 630 nM.
